Structures can show the parent of a compound that is named as a salt. Where two headings read alike, the source gives them in different places.
Columns and labels:
F508del CFTR = target: T1, F508del CFTR (Homo sapiens, UniProt P13569, DEL508-508); experiment: YFP fluorescence quenching functional assay (iodide influx), HEK293 cells with F508del CFTR and halide sensitive YFP; format: cell-based; details: for remaining activity at 10 µM: read-out: % YFP quench
T1 construct: expressed in transfected cells; host or cells: HEK293 Griptite cells stably expressing F508del CFTR, transiently transfected with halide-sensitive eYFP
T1 sequence (P13569 with tags, fused parts or gaps DEL508-508): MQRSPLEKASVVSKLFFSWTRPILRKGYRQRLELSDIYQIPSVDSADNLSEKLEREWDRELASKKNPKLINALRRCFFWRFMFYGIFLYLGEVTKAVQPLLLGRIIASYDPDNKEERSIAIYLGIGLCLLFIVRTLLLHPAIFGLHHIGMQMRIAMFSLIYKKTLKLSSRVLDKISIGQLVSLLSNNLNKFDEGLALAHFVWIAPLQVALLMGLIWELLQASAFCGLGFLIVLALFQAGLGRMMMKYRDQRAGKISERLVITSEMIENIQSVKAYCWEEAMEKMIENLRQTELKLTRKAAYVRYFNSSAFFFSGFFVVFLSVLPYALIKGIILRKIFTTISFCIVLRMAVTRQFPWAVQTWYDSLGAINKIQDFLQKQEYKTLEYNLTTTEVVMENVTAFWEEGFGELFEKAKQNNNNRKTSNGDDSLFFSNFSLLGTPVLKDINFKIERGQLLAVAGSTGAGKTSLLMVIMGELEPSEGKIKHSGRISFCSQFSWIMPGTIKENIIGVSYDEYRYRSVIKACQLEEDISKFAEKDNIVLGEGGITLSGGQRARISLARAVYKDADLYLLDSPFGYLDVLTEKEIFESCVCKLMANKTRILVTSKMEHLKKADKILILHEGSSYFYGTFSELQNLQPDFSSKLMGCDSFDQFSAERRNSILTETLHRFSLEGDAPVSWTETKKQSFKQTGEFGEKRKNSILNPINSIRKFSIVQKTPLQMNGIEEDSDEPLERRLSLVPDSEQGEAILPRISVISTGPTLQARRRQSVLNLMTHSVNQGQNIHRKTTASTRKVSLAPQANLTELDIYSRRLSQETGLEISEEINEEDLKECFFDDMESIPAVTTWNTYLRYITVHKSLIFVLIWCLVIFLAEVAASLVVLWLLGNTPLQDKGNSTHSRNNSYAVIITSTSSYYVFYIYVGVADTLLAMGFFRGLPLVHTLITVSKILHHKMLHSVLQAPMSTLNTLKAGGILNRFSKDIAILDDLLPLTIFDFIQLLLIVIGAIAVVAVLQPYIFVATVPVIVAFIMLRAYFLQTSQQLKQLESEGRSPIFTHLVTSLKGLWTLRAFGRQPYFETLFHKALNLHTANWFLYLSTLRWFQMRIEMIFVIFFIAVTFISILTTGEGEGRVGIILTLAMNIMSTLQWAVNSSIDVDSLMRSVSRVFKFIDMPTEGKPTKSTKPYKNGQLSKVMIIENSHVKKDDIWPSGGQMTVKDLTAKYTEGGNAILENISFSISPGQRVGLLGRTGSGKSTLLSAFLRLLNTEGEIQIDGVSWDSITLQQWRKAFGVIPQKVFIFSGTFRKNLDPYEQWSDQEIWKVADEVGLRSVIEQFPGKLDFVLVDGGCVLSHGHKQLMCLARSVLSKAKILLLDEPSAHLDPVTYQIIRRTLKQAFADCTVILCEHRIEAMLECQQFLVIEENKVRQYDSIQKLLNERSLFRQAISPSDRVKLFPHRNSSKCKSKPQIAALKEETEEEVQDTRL
Description: In addition to the MDS compounds, the 1120 Prestwick Library compounds were screened. (See FIGS. 7 to 12.) Of the compounds, one qualified as a “strong” hit, 3 as “medium” hits and 57 as “weak” hits. The Z score for the assay was 0.62. The top 50 hits were further tested in a counter screen in which the halide sensitive fluorescent compound (YFP) was expressed inside cells (Table 2). After incubation with the test compounds the ability of the cells to uptake iodide was measure by decreasing YFP fluorescence. In these cells this can only occur if functional CFTR is present at the cell surface (FIG. 7). The hits were also tested for the appearance of the Band C form of CFTR. […] The functionality of the compounds was further studied by the use of Iodide efflux assays for each compound in both BHK and the more physiologically relevant CFBE cells. […] FIG. 10 is a table of results for the 15 hit compounds which summarizes many experiments. […] The results for the best 15 compounds from the Prestwick Library, or “Prestwick 15”, are shown FIGS. 8, 9 and 10.
Strongly adhesive Human […] Kidney cells stably expressing both the human macrophage scavenger receptor (HEK293 Griptite, Invitrogen) and F508del CFTR were plated in 96-well plates and transiently transfected with pcDNA3 plasmid encoding a halide sensitive variant of eYFP. After 24-48 h later cells were exposed to 10 μM test compound in triplicate and incubated for an additional 24 h. Cells were stimulated for 20 minutes with a in a buffer containing 25 μM forskolin, 45 μM IBMX and 50 μM genistein final concentration. The high content screening assay was performed using a Cellomics platform. Iodide was added robotically to a final concentration of 50 mM and the resulting decrease in fluorescence was measured. Images were taken at time 0 and stored for subsequent use when calculating a mask so that only those cells that express YFP at time 0 are measured. The quenching was detected in 15 images taken over the course of an experiment lasting 40 seconds. Each test compound was compared to the following two controls: a negative control without drugs to assess photobleaching that may occur when the same field of view is repeatedly imaged, and a positive control with cells treated with a known potentiator. Results were generated from 150-300 cells per well.

ΔF508-CFTR = ΔF508-CFTR (Homo sapiens, UniProt P13569, DEL508-508); format: cell-based; design: which was then ligated into full length pNUT-CFTR linearized using Hpa1 and Pml1; expressed in transfected cells; details: for hit in screen (class letter) / ΔF508-CFTR correctors identified by highthroughput screening: hit class: BHK cells; for ΔF508-CFTR correctors identified by highthroughput screening: hit class: 37° C.
ΔF508-CFTR, sequence (P13569 with tags, fused parts or gaps DEL508-508): as above
Description: BHK cells expressing 3HA-tagged ΔF508-CFTR between passages 5-8 were seeded in 96-well plates (Corning half area, black-sided, clear bottom) at 15,000 cells per well and incubated with culture medium for 24 h at 37° C. Each well was then treated with a different test compound (80 compounds per plate) for 24 h at 20 μM final concentration. The remaining 16 wells on each plate were used for control conditions. […] Cells were fixed in a 4% paraformaldehyde solution, washed with PBS, and blocked with PBS containing 5% fetal bovine serum (FBS) for 1 hat 4° C.
Blocking solution was replaced with 15 μl of primary antibody solution containing 1% FBS and mouse monoclonal anti-HA antibody (1:150 dilution, Sigma) in PBS. The plates were sealed and left at 4° C. overnight. After three washes with 100 μl PBS, cells were incubated for 1 h with 15 μl of secondary antibody solution containing 1% FBS and anti-mouse IgG conjugated with FITC (1:100 dilution, Sigma) in PBS. Cells were again washed three times with 100 μl of PBS and analyzed in a plate reader (Analyst™ HT96.384, Biosystems; 488 nm excitation/510 nm emission). […] The mean fluorescence of four untreated wells was used as the background signal when calculating deviations of the 80 compound-treated wells. Hits were then cherry-picked into reservoir plates and re-tested in duplicate using the same assay.
BHK cells expressing ΔF508-CFTR were incubated with test compounds (20 μM) for 24 hours at 37° C. in a 96 well format. Plasma membrane expression of ΔF508-CFTR was then assayed by immunofluorescence using a primary antibody directed against the inserted 3HA tag and a secondary antibody conjugated with a fluorophore (FITC). […] The positive compounds were selected and retested in duplicate to obtain an N of 3. At the re-screening stage, the intrinsic fluorescence of each potential hit was also measured and the fluorescent ones were not considered further.
Screening was performed using BHK cells that stably express F508-CFTR bearing three tandem haemagglutinin-epitope tags (3HA) and linker sequences in the fourth extracellular loop after amino acid 901 (Howard et al., 1995; Carlile et al., 2007; Robert et al., 2008). […] Screening was performed using the Prestwick Chemical Library of 1120 high-purity compounds.

[1] = HEK293, 10 μM, 24 h, nc = 100% pc = 69.2
[2] = Microsource Discovery library, medium and weak hits, 20 μM, 24 hours
[3] = 10 μM, 24 h, nc = 100% pc = 69.2
[4] = Prestwick library, initial corrector assay
[5] = Prestwick library, initial corrector assay, standard deviations above untreated controls
[6] = Microsource Discovery library, 20 μM, 24 hours

For `CCOc1ccc2ccccc2c1C(=O)N[C@@H]1C(=O)N2[C@@H]1SC(C)(C)[C@@H]2C(=O)O` [Nafcillin sodium salt monohydrate], the remaining activity at 10 µM (F508del CFTR; [1]) was 97% and the “hit in screen (score)” value (ΔF508-CFTR) was “W 1.2”.

didectylkhivorin was tested, and the “signal in the trafficking assay” value (ΔF508-CFTR; [2]) was “consistently elevated signal”.

In the case of `OCC(O)CN1CCN(c2ccccc2)CC1` (racemic) [Dropropizine (R, S)], the “% YFP quench” value (F508del CFTR; [3]) is reported as 92%, the “hit in screen (class letter)” value (ΔF508-CFTR; [4]) is reported as “W (Medium and weak hits were defined as compounds giving a cell fluorescence signal that was between 2 and 3 or 1 and 2 standard deviations, respectively, above untreated control wells)” and the “hit in screen (score)” value (ΔF508-CFTR; [5]) is reported as 1.2.

With `CC1(C)[C@@H](O[C@H]2O[C@H](C(=O)O)[C@@H](O)[C@H](O)[C@H]2O[C@@H]2O[C@H](C(=O)O)[C@@H](O)[C@H](O)[C@H]2O)CC[C@]2(C)[C@H]3C(=O)C=C4[C@@H]5C[C@@](C)(C(=O)O)CC[C@]5(C)CC[C@@]4(C)[C@]3(C)CC[C@@H]12` [glycyrrhizic acid] the “ΔF508-CFTR correctors identified by highthroughput screening: hit class” value (shortened to “ΔF508-CFTR correctors identified”) (ΔF508-CFTR; [6]) was “strong hits”.

For `CCOC(=O)n1ccn(C)c1=S` [Carbimazole], the remaining activity at 10 µM (F508del CFTR; [1]) was 95%, the “hit in screen (class letter)” value (ΔF508-CFTR; [4]) was “W (Medium and weak hits were defined as compounds giving a cell fluorescence signal that was between 2 and 3 or 1 and 2 standard deviations, respectively, above untreated control wells)” and the “hit in screen (score)” value (ΔF508-CFTR; [5]) was 1.0.

For `C[C@]12CC[C@H](O)CC1=CC[C@@H]1[C@@H]2CC[C@]2(C)C(=O)CC[C@@H]12` [dyhydroepiandrosterone], the “signal in the trafficking assay” value (ΔF508-CFTR; [2]) was “consistently elevated signal”.

With `C[C@]12CC[C@@H]3c4ccc(OS(=O)(=O)O)cc4CC[C@H]3[C@@H]1CCC2=O` [Estropipate] the remaining activity at 10 µM (F508del CFTR; [1]) was 83%, the “hit in screen (class letter)” value (ΔF508-CFTR; [4]) was “W (Medium and weak hits were defined as compounds giving a cell fluorescence signal that was between 2 and 3 or 1 and 2 standard deviations, respectively, above untreated control wells)” and the “hit in screen (score)” value (ΔF508-CFTR; [5]) was 1.0.

For `C[N+](C)(C)CCCCCC[N+](C)(C)C.O.O.[Br-].[Br-]` [Hexamethonium dibromide dihydrate], the “% YFP quench” value (F508del CFTR; [3]) was 98%, the “hit in screen (class letter)” value (ΔF508-CFTR; [4]) was “W (Medium and weak hits were defined as compounds giving a cell fluorescence signal that was between 2 and 3 or 1 and 2 standard deviations, respectively, above untreated control wells)” and the “hit in screen (score)” value (ΔF508-CFTR; [5]) was 1.1.

With `Cc1oncc1C(=O)Nc1ccc(C(F)(F)F)cc1` [Leflunomide] the remaining activity at 10 µM (F508del CFTR; [1]) was 107%, the “hit in screen (class letter)” value (ΔF508-CFTR; [4]) was “W (Medium and weak hits were defined as compounds giving a cell fluorescence signal that was between 2 and 3 or 1 and 2 standard deviations, respectively, above untreated control wells)” and the “hit in screen (score)” value (ΔF508-CFTR; [5]) was 1.0.

With `CC[C@@H](CO)NC(=O)[C@@H]1C=C2c3cccc4[nH]cc(c34)C[C@H]2N(C)C1` [Methylergometrine maleate] the remaining activity at 10 µM (F508del CFTR; [1]) was 94%, the “hit in screen (class letter)” value (ΔF508-CFTR; [4]) was “W (Medium and weak hits were defined as compounds giving a cell fluorescence signal that was between 2 and 3 or 1 and 2 standard deviations, respectively, above untreated control wells)” and the “hit in screen (score)” value (ΔF508-CFTR; [5]) was 1.1.

For `CCCCOc1ccc(OCCCN2CCOCC2)cc1` [Pramoxine hydrochloride], the remaining activity at 10 µM (F508del CFTR; [1]) was 89%, the “hit in screen (class letter)” value (ΔF508-CFTR; [4]) was “W (Medium and weak hits were defined as compounds giving a cell fluorescence signal that was between 2 and 3 or 1 and 2 standard deviations, respectively, above untreated control wells)” and the “hit in screen (score)” value (ΔF508-CFTR; [5]) was 1.2.

In the case of `C[C@]12CCC3C(CC[C@H]4C[C@@H](Cl)CC[C@]34C)C1CCC2=O` (stereo partly drawn) [3-beta chloroandrostanone], the “signal in the trafficking assay” value (ΔF508-CFTR; [2]) is reported as “consistently elevated signal”.

For `C[C@]12CC[C@H](O)C[C@@H]1CC[C@@H]1[C@@H]2CC[C@]2(C)C(=O)CC[C@@H]12` [Epiandrosterone], the remaining activity at 10 µM (F508del CFTR; HEK293, 24 h) was 93%, the “hit in screen (score)” value (ΔF508-CFTR) was “W 1.0” and the “signal in the trafficking assay” value (ΔF508-CFTR) was “consistently elevated signal”.

With `C[C@]12C[C@H](O)[C@H]3[C@@H](CCC4=CC(=O)CC[C@@]43C)[C@@H]1CC[C@@H]2C(=O)CO` [Corticosterone] the remaining activity at 10 µM (F508del CFTR; [1]) was 90%, the “hit in screen (class letter)” value (ΔF508-CFTR; [4]) was “W (Medium and weak hits were defined as compounds giving a cell fluorescence signal that was between 2 and 3 or 1 and 2 standard deviations, respectively, above untreated control wells)” and the “hit in screen (score)” value (ΔF508-CFTR; [5]) was 1.1.

In the case of Terbutaline hemisulfate, the “% YFP quench” value (F508del CFTR; [3]) is reported as 100%, the “hit in screen (class letter)” value (ΔF508-CFTR; [4]) is reported as “W (Medium and weak hits were defined as compounds giving a cell fluorescence signal that was between 2 and 3 or 1 and 2 standard deviations, respectively, above untreated control wells)” and the “hit in screen (score)” value (ΔF508-CFTR; [5]) is reported as 1.3.

For `O=c1c(-c2ccc(O)cc2)coc2cc(O)ccc12` [daidzein], the “signal in the trafficking assay” value (ΔF508-CFTR; [2]) was “consistently elevated signal”.

With `COC(=O)c1c(Cl)c(Cl)c(C(=O)OC)c(Cl)c1Cl` [dacthal] the “ΔF508-CFTR correctors identified” value (ΔF508-CFTR; [6]) was “strong hits”.

In the case of `O=C(N[C@H](CO)[C@H](O)c1ccc([N+](=O)[O-])cc1)C(Cl)Cl` [chloramphenicol], the “ΔF508-CFTR correctors identified” value (ΔF508-CFTR; [6]) is reported as “strong hits”.

In the case of “1-deacetoxy-1-oxo-3,7 dideactyl khivorin”, the “signal in the trafficking assay” value (ΔF508-CFTR; [2]) is reported as “consistently elevated signal”.

In the case of `O=C1N[C@@H]2[C@@H](O)[C@@H](O)[C@H](O)[C@@H](CO)N2C1=O` [kifunesine], the “increase in signal, suitability as positive control for the corrector assay screen” value (ΔF508-CFTR; kifunesine 100 μM, Sodium 4 Phenylbutyrate 1 mM, curcumin 40 μM, 24 hours) is reported as “not sufficient to act as a positive control”.

Work on `NC(=O)N/N=C/c1ccc([N+](=O)[O-])o1` [Nitrofural] yielded a remaining activity at 10 µM (F508del CFTR; [1]) of 94%.

For `CN(Cc1cc(Br)cc(Br)c1N)C1CCCCC1` [bromhexine], the “signal in the trafficking assay” value (ΔF508-CFTR; [2]) was “consistently elevated signal”.

For `CC(=O)O[C@H]1C[C@@H](OC(C)=O)C(C)(C)[C@@H]2C[C@@H](OC(C)=O)[C@]3(C)[C@H](CC[C@@]4(C)[C@H](c5ccoc5)OC(=O)[C@H]5O[C@@]534)[C@@]12C` [khivorin], the “signal in the trafficking assay” value (ΔF508-CFTR; [2]) was “consistently elevated signal”.

For `N.N.O=C([O-])C1(C(=O)[O-])CCC1.[Pt+2]` [carboplatin], the “ΔF508-CFTR correctors identified” value (ΔF508-CFTR; [6]) was “strong hits”.

`Cc1[nH]ccc2c1[nH]c1cc(=O)ccc12` [Harmol hydrochloride dihydrate] showed a remaining activity at 10 µM (F508del CFTR; [1]) of 92%.
